{"source": "patent US9050341B2", "about": "“Methods of treating drug resistant and other tumors by administering 6,7-dialkoxy quinazoline derivatives” (NATCO PHARMA LIMITED, priority 2009, dated 2015)", "assay_in_all_cases": "KinomeScan kinase profiling", "format_in_all_cases": "binding", "key": {"ABL1 (F317L)": {"target": "T1, ABL1 (F317L) (Homo sapiens, UniProt P00519, F317L)", "T1 construct": "host or cells: E. coli host derived from BL21 (T7 phage lysate)", "text": "(§1) The kinases were ABL1(F317L), ABL1(H396P), ABL1(Q252H), ABL1(Y253F), ADCK3, ADCK4, ALK, ARK5, AXL, BLK, BRSK2, CDK7, CIT, CLK4, CSNK1D, CSNK1E, DAPK1, DAPK3, DCAMKL3, DMPK, EGFR, EGFR(E746-A750DEL), EGFR(G719C), EGFR(G719S), EGFR(L747-E749DEL, A750P), EGFR(L747-S752 DEL, P753S), EGFR(L747-T751DEL, Sin), EGFR(L858R), EGFR(L861Q), EGFR(S752-I759DEL), EPHA5, EPHA6, ERBB2, ERBB4, ERK3, ERK4, FGR, FLT3(D835H), FLT3(D835Y), FLT3(ITD), FLT3(N841 I), FRK, GAK, GCN2(KIN.DOM.2, S808G), HCK, IRAK3, JAK1(KIN.DOM.1), KIT, KIT(D816V), KIT(V559D), KIT(V559D,T670I), LCK, LOK, LTK, LYN, MAP3K3, MAP4K4, MAP4K5, MET, MINK, MKNK1, MKNK2, MST4, MYLK2, PDGFRB, PIM3, PKN2, PRKD1, PRKD2, PRKD3, PRKG1, RIPK2, RPS6KA4(KIN.DOM.2), SIK2, SLK, SNARK, SRC, STK36, TNIK, TNNI3K, TYK2(KIN.DOM.2).\n(§2) Kinase assays: Assays were performed as described in Fabian et al. (2005) Nature Biotechnology, vol. 23, p. 329. Kinase-tagged T7 phage strains were grown in parallel in 24 or 96-well blocks in an E. coli host derived from the BL21 strain. E. coli were grown to log-phase and infected with T7 phage from a frozen stock (multiplicity of infection ˜0.1) and incubated with shaking at 32° C. until lysis (˜90 minutes). The lysates were centrifuged and filtered to remove cell debris. […] The liganded beads were blocked with excess biotin and washed with blocking buffer (SeaBlock (Pierce), 1% BSA, 0.05% Tween 20, 1 mM DTT) to remove unbound ligand and to reduce non-specific phage binding.\n(§3) Test compounds were prepared as 40× stocks in DMSO and diluted into the aqueous environment. 2.5% DMSO was added to control assays lacking a test compound. All reactions were performed in polystyrene 96-well plates that had been pretreated with blocking buffer in a final volume of 0.04 ml. […] The phage titer in the eluates was measured by quantitative PCR."}, "ALK": {"target": "T2, ALK (Homo sapiens, UniProt Q9UM73)", "T2 construct": "host or cells: E. coli host derived from BL21 (T7 phage lysate)", "text": "as §1, §2, §3"}, "KIT (V559D)": {"target": "T3, KIT (V559D) (Homo sapiens, UniProt P10721, V559D)", "T3 construct": "host or cells: T7 phage in E. coli host derived from BL21", "T3 sequence (P10721 26-976 V559D)": "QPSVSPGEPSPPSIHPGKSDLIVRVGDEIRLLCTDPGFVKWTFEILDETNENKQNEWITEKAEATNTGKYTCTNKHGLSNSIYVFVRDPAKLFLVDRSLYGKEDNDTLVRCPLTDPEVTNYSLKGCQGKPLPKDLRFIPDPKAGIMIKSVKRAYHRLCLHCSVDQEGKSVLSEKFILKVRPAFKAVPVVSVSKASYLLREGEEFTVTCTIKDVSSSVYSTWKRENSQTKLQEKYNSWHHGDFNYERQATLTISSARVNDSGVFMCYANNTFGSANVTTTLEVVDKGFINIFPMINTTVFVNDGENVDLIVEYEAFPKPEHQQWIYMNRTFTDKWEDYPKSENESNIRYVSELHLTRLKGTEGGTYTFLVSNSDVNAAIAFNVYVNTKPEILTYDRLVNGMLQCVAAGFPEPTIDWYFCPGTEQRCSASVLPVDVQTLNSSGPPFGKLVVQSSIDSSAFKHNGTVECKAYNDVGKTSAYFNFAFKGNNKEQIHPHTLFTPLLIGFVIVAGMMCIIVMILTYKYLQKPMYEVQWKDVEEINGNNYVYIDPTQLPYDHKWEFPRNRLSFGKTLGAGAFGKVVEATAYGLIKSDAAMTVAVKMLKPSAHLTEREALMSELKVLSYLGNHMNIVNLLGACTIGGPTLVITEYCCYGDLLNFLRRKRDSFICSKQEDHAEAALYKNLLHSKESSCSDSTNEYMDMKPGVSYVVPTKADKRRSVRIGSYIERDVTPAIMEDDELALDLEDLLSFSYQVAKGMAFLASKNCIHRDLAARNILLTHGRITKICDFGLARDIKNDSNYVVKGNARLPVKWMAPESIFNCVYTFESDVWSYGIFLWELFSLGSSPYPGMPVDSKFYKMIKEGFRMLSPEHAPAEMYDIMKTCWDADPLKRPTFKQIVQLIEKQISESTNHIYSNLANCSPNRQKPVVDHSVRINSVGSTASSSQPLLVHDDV", "text": "as §1, §2, §3"}, "PCTK3": {"target": "T4, PCTK3 (Homo sapiens, UniProt Q07002)", "T4 construct": "host or cells: E. coli host derived from the BL21 strain, infected with T7 phage", "text": "as §1, §2, §3"}, "ERBB4": {"target": "T5, ERBB4 (Homo sapiens, UniProt Q15303)", "T5 construct": "host or cells: E. coli host derived from BL21, T7 phage lysate", "T5 sequence (Q15303 26-1308)": "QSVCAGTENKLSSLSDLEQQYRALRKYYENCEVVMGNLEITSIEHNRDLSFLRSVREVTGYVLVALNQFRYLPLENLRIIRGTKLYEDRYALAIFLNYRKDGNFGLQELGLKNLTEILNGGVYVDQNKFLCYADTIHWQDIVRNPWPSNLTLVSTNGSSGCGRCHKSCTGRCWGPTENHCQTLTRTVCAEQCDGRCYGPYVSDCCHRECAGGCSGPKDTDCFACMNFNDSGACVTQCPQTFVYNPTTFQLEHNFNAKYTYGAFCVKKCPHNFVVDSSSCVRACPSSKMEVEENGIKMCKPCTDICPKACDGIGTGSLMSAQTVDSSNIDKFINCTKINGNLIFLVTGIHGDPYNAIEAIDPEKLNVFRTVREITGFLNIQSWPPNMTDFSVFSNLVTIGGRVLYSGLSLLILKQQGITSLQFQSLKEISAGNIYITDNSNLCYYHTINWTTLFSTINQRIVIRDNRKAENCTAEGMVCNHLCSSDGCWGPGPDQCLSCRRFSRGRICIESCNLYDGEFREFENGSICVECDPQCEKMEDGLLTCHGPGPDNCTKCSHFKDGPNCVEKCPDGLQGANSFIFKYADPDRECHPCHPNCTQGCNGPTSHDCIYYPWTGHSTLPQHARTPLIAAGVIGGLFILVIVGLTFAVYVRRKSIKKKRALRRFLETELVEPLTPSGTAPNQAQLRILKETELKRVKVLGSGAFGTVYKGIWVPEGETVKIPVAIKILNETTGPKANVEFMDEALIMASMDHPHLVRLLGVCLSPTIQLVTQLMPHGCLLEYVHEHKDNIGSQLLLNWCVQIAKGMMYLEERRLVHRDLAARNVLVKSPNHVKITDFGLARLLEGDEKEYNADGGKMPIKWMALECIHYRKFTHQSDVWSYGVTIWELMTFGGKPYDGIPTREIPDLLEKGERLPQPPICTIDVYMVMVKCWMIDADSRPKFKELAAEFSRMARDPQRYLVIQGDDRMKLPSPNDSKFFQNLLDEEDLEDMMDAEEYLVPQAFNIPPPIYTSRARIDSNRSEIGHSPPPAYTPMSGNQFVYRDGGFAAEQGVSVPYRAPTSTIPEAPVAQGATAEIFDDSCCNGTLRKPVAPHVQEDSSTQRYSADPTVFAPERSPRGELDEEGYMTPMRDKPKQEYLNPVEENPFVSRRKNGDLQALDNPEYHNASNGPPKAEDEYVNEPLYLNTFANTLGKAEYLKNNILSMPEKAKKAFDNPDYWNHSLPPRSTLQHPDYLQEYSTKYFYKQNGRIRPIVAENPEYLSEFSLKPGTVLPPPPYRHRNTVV", "text": "as §1, §2, §3"}, "CDK5": {"target": "T6, CDK5 (Homo sapiens, UniProt Q00535)", "T6 construct": "host or cells: T7 phage in E. coli (BL21-derived)", "text": "as §1, §2, §3"}, "TNK1": {"target": "T7, TNK1 (Homo sapiens, UniProt Q13470)", "T7 construct": "purchased Ambit Biosciences Corp (KinomeScan); host or cells: E. coli host derived from the BL21 strain (T7 phage lysate)", "text": "as §1, §2, §3"}, "ABL1 (Y253F)": {"target": "T8, ABL1 (Y253F) (Homo sapiens, UniProt P00519, Y253F)", "T8 construct": "host or cells: E. coli host derived from BL21 (T7 phage lysate)", "text": "as §1, §2, §3"}, "PHKG2": {"target": "T9, PHKG2 (Homo sapiens, UniProt P15735)", "T9 construct": "host or cells: E. coli host derived from the BL21 strain, infected with T7 phage", "text": "as §1, §2, §3"}, "CSNK1G2": {"target": "T10, CSNK1G2 (Homo sapiens, UniProt P78368)", "T10 construct": "purchased Ambit Biosciences Corp (KinomeScan); host or cells: T7 phage in E. coli host derived from BL21", "text": "as §1, §2, §3"}, "DAPK1": {"target": "T11, DAPK1 (Homo sapiens, UniProt P53355)", "T11 construct": "purchased Ambit Biosciences Corp (KinomeScan); host or cells: T7 phage in E. coli host derived from BL21", "text": "as §1, §2, §3"}, "LATS1": {"target": "T12, LATS1 (Homo sapiens, UniProt O95835)", "T12 construct": "host or cells: T7 phage in E. coli host derived from BL21", "text": "as §1, §2, §3"}, "GAK": {"target": "T13, GAK (Homo sapiens, UniProt O14976)", "T13 construct": "host or cells: E. coli host derived from BL21, infected with T7 phage", "text": "as §1, §2, §3"}, "BMPR2": {"target": "T14, BMPR2 (Homo sapiens, UniProt Q13873)", "T14 construct": "purchased Ambit Biosciences Corp (KinomeScan); host or cells: E. coli host derived from the BL21 strain, T7 phage", "text": "as §1, §2, §3"}, "RIOK1": {"target": "T15, RIOK1 (Homo sapiens, UniProt Q9BRS2)", "T15 construct": "host or cells: E. coli host derived from BL21, T7 phage lysate", "text": "as §1, §2, §3"}, "STK16": {"target": "T16, STK16 (Homo sapiens, UniProt O75716)", "T16 construct": "host or cells: E. coli host derived from the BL21 strain, T7 phage lysate", "text": "as §1, §2, §3"}, "RET (V804L)": {"target": "T17, RET (V804L) (Homo sapiens, UniProt P07949, V804L)", "T17 construct": "host or cells: E. coli host derived from BL21, T7 phage lysate", "T17 sequence (P07949 29-1114 V804L)": "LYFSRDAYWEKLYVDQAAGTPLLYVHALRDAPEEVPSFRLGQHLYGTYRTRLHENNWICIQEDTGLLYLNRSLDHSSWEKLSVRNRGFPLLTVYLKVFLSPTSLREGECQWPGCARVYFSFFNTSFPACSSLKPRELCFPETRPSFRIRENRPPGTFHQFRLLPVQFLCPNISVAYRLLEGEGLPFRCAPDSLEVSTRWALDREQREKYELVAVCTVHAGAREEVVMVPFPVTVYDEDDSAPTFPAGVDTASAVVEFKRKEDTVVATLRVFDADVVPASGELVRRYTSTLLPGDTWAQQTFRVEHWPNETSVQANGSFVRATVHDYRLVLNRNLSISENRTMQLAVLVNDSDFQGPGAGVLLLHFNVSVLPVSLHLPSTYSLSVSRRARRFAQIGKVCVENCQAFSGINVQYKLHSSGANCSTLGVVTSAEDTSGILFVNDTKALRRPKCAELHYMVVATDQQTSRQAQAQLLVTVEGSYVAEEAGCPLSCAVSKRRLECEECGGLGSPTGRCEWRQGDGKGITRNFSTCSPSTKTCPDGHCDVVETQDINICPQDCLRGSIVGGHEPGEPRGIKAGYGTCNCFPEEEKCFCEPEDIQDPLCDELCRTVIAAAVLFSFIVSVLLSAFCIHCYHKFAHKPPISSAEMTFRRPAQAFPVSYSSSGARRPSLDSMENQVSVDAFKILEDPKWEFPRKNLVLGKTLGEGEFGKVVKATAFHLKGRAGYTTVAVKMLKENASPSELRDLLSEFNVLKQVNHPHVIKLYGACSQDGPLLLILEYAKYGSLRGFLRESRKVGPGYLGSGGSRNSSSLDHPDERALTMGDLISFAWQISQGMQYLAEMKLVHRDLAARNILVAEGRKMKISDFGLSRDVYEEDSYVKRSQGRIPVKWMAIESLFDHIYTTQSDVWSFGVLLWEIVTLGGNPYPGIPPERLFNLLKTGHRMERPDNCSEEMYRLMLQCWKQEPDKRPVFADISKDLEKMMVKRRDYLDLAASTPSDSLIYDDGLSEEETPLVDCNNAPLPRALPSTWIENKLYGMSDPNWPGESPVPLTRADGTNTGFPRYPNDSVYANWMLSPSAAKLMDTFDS", "text": "as §1, §2, §3"}, "EGFR (L858R)": {"target": "T18, EGFR (L858R) (Homo sapiens, UniProt P00533, L858R)", "T18 construct": "host or cells: E. coli host derived from BL21, T7 phage lysate", "text": "as §1, §2, §3"}, "EPHA3": {"target": "T19, EPHA3 (Homo sapiens, UniProt P29320)", "T19 construct": "host or cells: E. coli host derived from BL21, T7 phage lysate", "T19 sequence (P29320 21-983)": "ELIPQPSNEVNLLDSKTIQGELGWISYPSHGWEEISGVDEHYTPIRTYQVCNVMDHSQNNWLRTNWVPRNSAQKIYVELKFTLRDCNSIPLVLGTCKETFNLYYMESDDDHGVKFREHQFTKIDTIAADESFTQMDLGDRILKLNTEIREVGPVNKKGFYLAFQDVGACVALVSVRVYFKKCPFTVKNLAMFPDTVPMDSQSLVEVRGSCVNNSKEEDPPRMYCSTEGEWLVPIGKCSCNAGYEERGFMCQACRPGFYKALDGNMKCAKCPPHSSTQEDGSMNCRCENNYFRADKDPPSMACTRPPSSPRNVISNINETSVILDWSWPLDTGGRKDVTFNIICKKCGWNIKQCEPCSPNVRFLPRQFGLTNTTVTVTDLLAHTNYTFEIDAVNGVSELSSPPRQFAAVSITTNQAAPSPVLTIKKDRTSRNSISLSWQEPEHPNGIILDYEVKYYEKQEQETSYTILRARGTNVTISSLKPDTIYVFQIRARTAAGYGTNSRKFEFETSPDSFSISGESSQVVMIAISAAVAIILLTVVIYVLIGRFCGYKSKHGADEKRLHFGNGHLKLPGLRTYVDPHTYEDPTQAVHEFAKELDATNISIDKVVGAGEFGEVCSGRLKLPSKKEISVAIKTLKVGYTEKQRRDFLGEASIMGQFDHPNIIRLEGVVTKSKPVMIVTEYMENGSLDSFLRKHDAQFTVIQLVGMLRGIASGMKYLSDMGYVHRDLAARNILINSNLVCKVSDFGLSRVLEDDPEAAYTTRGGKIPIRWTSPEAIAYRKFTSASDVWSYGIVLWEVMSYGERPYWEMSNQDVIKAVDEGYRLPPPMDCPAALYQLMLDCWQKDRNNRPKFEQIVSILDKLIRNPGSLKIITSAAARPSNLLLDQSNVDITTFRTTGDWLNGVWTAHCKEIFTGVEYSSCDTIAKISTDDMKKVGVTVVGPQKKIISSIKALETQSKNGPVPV", "text": "as §1, §2, §3"}, "FES": {"target": "T20, FES (Homo sapiens, UniProt P07332)", "T20 construct": "host or cells: E. coli host derived from BL21, infected with T7 phage", "text": "as §1, §2, §3"}, "PAK4": {"target": "T21, PAK4 (Homo sapiens, UniProt O96013)", "T21 construct": "host or cells: E. coli host derived from the BL21 strain, infected with T7 phage", "text": "as §1, §2, §3"}, "MLK2": {"target": "T22, MLK2 (Homo sapiens, UniProt Q02779)", "T22 construct": "host or cells: T7 phage in E. coli host derived from BL21", "text": "as §1, §2, §3"}}, "data": [{"compound": "C#Cc1cccc(Nc2ncnc3cc(OC)c(OCCCN4CCOCC4)cc23)c1", "note": "[NRC-2694, N-(3-ethylnylphenyl)-7-methoxy-6-[3-(4-morpholinyl)propoxy]-4-quinazolinamine]", "values": [{"measurement": "% Ctrl @ 10000 nM", "setting": "ABL1 (F317L)", "value": 33, "unit": "% Ctrl"}, {"measurement": "% Ctrl @ 10000 nM", "setting": "ALK", "value": 10, "unit": "% Ctrl"}, {"measurement": "% Ctrl @ 10000 nM", "setting": "KIT (V559D)", "value": 17, "unit": "% Ctrl"}, {"measurement": "% Ctrl @ 10000 nM", "setting": "PCTK3", "value": 82, "unit": "% Ctrl"}, {"measurement": "% Ctrl @ 10000 nM", "setting": "ERBB4", "value": 3.3, "unit": "% Ctrl"}, {"measurement": "% Ctrl @ 10000 nM", "setting": "CDK5", "value": 100, "unit": "% Ctrl"}, {"measurement": "% Ctrl @ 10000 nM", "setting": "TNK1", "value": 41, "unit": "% Ctrl"}, {"measurement": "% Ctrl @ 10000 nM", "setting": "ABL1 (Y253F)", "value": 23, "unit": "% Ctrl"}, {"measurement": "% Ctrl @ 10000 nM", "setting": "PHKG2", "value": 59, "unit": "% Ctrl"}, {"measurement": "% Ctrl @ 10000 nM", "setting": "CSNK1G2", "value": 76, "unit": "% Ctrl"}, {"measurement": "% Ctrl @ 10000 nM", "setting": "DAPK1", "value": 26, "unit": "% Ctrl"}, {"measurement": "% Ctrl @ 10000 nM", "setting": "LATS1", "value": 91, "unit": "% Ctrl"}, {"measurement": "% Ctrl @ 10000 nM", "setting": "GAK", "value": 0.95, "unit": "% Ctrl"}, {"measurement": "% Ctrl @ 10000 nM", "setting": "BMPR2", "value": 100, "unit": "% Ctrl"}, {"measurement": "% Ctrl @ 10000 nM", "setting": "RIOK1", "value": 36, "unit": "% Ctrl"}, {"measurement": "% Ctrl @ 10000 nM", "setting": "STK16", "value": 100, "unit": "% Ctrl"}, {"measurement": "% Ctrl @ 10000 nM", "setting": "RET (V804L)", "value": 81, "unit": "% Ctrl"}, {"measurement": "% Ctrl @ 10000 nM", "setting": "EGFR (L858R)", "value": 0, "unit": "% Ctrl"}, {"measurement": "% Ctrl @ 10000 nM", "setting": "EPHA3", "value": 56, "unit": "% Ctrl"}, {"measurement": "% Ctrl @ 10000 nM", "setting": "FES", "value": 72, "unit": "% Ctrl"}, {"measurement": "% Ctrl @ 10000 nM", "setting": "PAK4", "value": 80, "unit": "% Ctrl"}, {"measurement": "% Ctrl @ 10000 nM", "setting": "MLK2", "value": 83, "unit": "% Ctrl"}]}]}
